melting point	SMILES
145 to 146 °C	COc1cc2ccnc(C=Cc3c(Cl)cccc3Cl)c2cc1OC
81 to 82 °C	Cc1oc(-c2ccccc2)nc1COc1cccc(CSc2cccc(CC(=O)O)c2)c1
229 to 231 °C	Cc1nc(N2CCOCC2)sc1-c1ccnc(Nc2ccc(N3CCOCC3)cc2)n1
152 to 153 °C	Cc1ccc(N2N=C3c4ccncc4CCC3CC2=O)cc1 (centres undefined)
231 to 234 °C	CSc1ccc(Nc2nc(=O)cc(N)n2-c2ccc(C)cc2)cc1
59 to 64 °C	FC(F)(F)Sc1cc[nH]c1-c1ccc(Cl)cc1
201 to 204 °C	CNC(=O)c1[nH]c2ccccc2c1Sc1ccccc1
141 to 143 °C	COCc1ncnc(O)c1OC
118 to 119 °C	CN(C)C=NS(=O)(=O)c1c2c(O)cccc2nn1C
150 to 152 °C	CS(=O)(=O)c1ccc(-c2cnn(CC=C(Cl)Cl)c(=O)c2-c2ccc(F)cc2)cc1
169 to 171 °C	CCCCN1C(N)=NC(Oc2cccc(C)c2)=NS1(=O)=O
124 to 125 °C	Cc1cccc(Cl)c1Nc1ccccc1CC(=O)O
118 to 121 °C	COCc1ccc2ccc(C=O)nc2c1Cl
191 °C	CC1CCc2ncc(C(N)=O)c(=O)n21 (centres undefined)
233 to 235 °C	COc1ccc(-c2c(Cl)c(Cn3cnc4ccccc43)nc3sc4c(c23)CCS(=O)C4)cc1 (centres undefined)
130 °C	Cc1nc2ccnn2c2c1CCN2Cc1ccccc1
250 to 253 °C	COC(=O)c1ccc2[nH]c(C#N)c(-c3ccccc3)c2c1
157 to 160 °C	COc1ccc2c(c1)C(=O)Cc1c(cccc1C(=O)O)S2
227 to 228 °C	S=c1nc(-c2ccc(Cl)c(Cl)c2)[nH]n1Cc1ccccc1
218 °C	Cc1ccc(NC(=O)c2ccc(C(=O)Nc3ccccc3NC(=O)OC(C)(C)C)s2)cc1Nc1nc(-c2cccnc2)cs1
88 to 90 °C	CCCc1cccnc1N(C)C1CCN(C(=O)c2ccc[nH]2)CC1
144 to 145 °C	CCOC(=O)C(=NOC)C(C)=NNC(=O)OC(C)(C)C
175 to 178 °C	C=CCNc1nnc(-c2ccc(F)c(F)c2Nc2ccc(I)cc2F)o1
120 °C	COC(=O)c1ccc(OC)c(NC(=NCl)c2ccc(Cl)cc2Cl)c1

melting point	SMILES
142 to 144 °C	COc1ccc(N2CCN(c3c(C)c(C)c4c(c3C)CC(C)O4)CC2)c(OC)c1 (centres undefined)
196 to 199 °C	O=C1COc2cc(NC(=O)C(=O)N3CCC(Oc4ccccc4)CC3)ccc2N1
124 to 129 °C	Cc1nnc(-c2ccccc2F)n2nc(OCc3ncnn3C)c(-c3ccsc3)c12
234 to 236 °C	Cc1nc(-n2ccc(O)cc2=O)sc1C(=O)NCCC1CC1
36 to 37 °C	CON(C)C(=O)c1cc2c(s1)CCCC2
107 to 108 °C	O=C(OCc1ccccc1)[C@H](CC(=O)N1C[C@H]2CCCC[C@H]2C1)Cc1ccccc1
127 to 129 °C	CN(Cc1cc2c(=O)c(C(=O)NCc3ccc(Cl)cc3)cn(C)c2o1)CC(O)c1ncccn1 (single isomer, unassigned; (+))
164 to 168 °C	CC(C)(C)c1ccc(Cn2c(=O)n(Cc3ccc(C(C)(C)C)cc3)c3ccccc32)cc1
128 to 130 °C	CNc1nc(-c2cccc(NC(=O)c3ccc(OC)c(OC)c3)c2)c2cc(OC)c(OC)cc2n1
182 to 184 °C	O=C(Oc1ccccc1)C1c2ccccc2Oc2ccc(O)cc21 (centres undefined)
228 to 230 °C	O=C(NC(=O)c1c(Cl)cccc1Cl)Nc1ccc(Br)cn1
225 to 226 °C	CC(=C1SC(=O)NC1=O)c1cccc(OCCOc2c(-c3ccc(F)cc3C)n(C)c3ccccc3c2=O)c1
183 to 184 °C	COc1ccc(F)cc1C(C)(C)CC(O)(Cn1cc(CO)c(=O)c2ccccc21)C(F)(F)F (centres undefined)
152 °C	CON(C)S(=O)(=O)NC(=O)Nc1nc(C)cc(C)n1
146 to 147 °C	COC(=O)C1CCc2cc(OCc3nc(-c4ccccc4)oc3C)ccc2C1O (centres undefined)
107 to 110 °C	Cc1cn(C2CC(O)C(COC(c3ccccc3)(c3ccccc3)c3ccccc3)O2)c(=O)[nH]c1=O (centres undefined)
295 °C	CNC(=O)c1ccccc1Nc1nc(Nc2ccc3c(c2)C(C)(C)CCC(=O)N3)ncc1Cl
81 to 82 °C	OC1CCCC2Oc3ccccc3OC12 (centres undefined)
154 to 157 °C	FC(F)(F)c1ccc2nc(N3CCN(c4ncccc4C(F)(F)F)CC3)n(Cc3ccccc3)c2c1
152 to 155 °C	Cn1ncnc1COc1nn2c(-c3ccccc3F)nncc2c1-c1cccc(C(F)(F)F)c1
113 to 114 °C	O=C(COc1cc(-c2ccccc2)on1)NCCO[N+](=O)[O-]
121 to 123 °C	CN(C)CC#CC1=CC[N+]([O-])=C(c2ccccc2)c2cc(Cl)ccc21
80 to 81 °C	CN(C)C(=O)CC1=C(n2nc(-c3c(-c4ccccc4)nn4ccccc34)ccc2=O)CCCC1
127 to 128 °C	COCN1C(=O)C(=C/c2ccccc2)/C(=C\c2cc(OC)c(OC)c(OC)c2)C1=O

melting point	SMILES
154 to 155 °C	COCCOCCn1cc(C(=O)NCc2ccc(Cl)cc2)c(=O)c2cc(CSC)ccc21
102 to 103 °C	COc1ccc(C2=NN(C3CCCCCC3)C(=O)[C@H]3CC=CC[C@@H]23)cc1OCC1CC1 (relative stereo)
81 to 83 °C	COc1ccc(-c2cccc([N+](=O)[O-])c2C)cn1
63 to 66 °C	O=C(NCCCn1cncn1)c1ccco1
141 to 143 °C	CNC(=C[N+](=O)[O-])NCCSCc1[nH]cnc1C
128 °C	CN(C)c1nc(NCc2ccc(NC(=O)c3ccc(F)cc3)cc2)c2ccc(-c3ccccc3C=O)cc2n1
> 300 °C	O=C(O)c1cn(C2CC2)c2nc(-c3cc4c(s3)CCC/C4=N\O)c(F)cc2c1=O
189 to 191 °C	CCOC(=O)NNc1cc(C)c(-c2ccc(C#N)cc2)nn1
193 °C	O=C(OCc1ccccc1)c1ccc2cc(-c3ccc(C(O)CO)c(C45CC6CC(CC(C6)C4)C5)c3)ccc2c1 (centres undefined)
144 to 145 °C	C=C(C)COc1cc(C)c(NC=O)c(C)c1C
293 to 295 °C	CC(=O)Nc1nc(NC(C)=O)c2[nH]cnc2n1
65 to 68 °C	C[C@H](COS(C)(=O)=O)NC(=O)OC(C)(C)C
107 to 108 °C	COC(=O)c1ccc2c(c1)CCN2C(=O)OC(C)(C)C
248 to 250 °C	Cc1cc(Cl)c2c(c1)C=C(/C=C/C=C/C=C/C(=O)O)CO2
180 to 183 °C	COc1ccc2onc(CC(N)=NO)c2c1
274 °C	Cc1nc(NC(=O)c2cnn3c(C(F)(F)F)cc(-c4ccc(C(F)(F)F)c(Cl)c4)nc23)sc1S(=O)(=O)NC(C)(C)CO
124 to 126 °C	CC1(C)N=C(CCO)C2=C(N1)N(Cc1ccccc1)C(=O)C(N)O2 (centres undefined)
194 to 196 °C	CC(C)(C)C(=O)c1cn(COCC[Si](C)(C)C)c2ncc(-c3ccc4c(ccn4Cc4ccccn4)c3)nc12
182 to 184 °C	N#CC(Cc1cccc(F)c1)n1nnc2cc3c(cc2c1=O)OC1CCCN1C3=O (centres undefined)
174 to 176 °C	O=C(O)c1cc2cc(Cl)ccc2nc1N[C@@H](Cc1ccc([N+](=O)[O-])cc1)C(=O)O
56 to 57 °C	Cc1ncc(C(=O)O)c(C2=NC(C)(C(C)C)C(=O)N2)n1 (centres undefined)
181 to 184 °C	CCN1C(=O)Cc2cc3c(cc21)C(=O)CO3
210 to 215 °C	CC(C)OC(=O)Nc1ccc(-c2ccnc3c(C(=O)c4cccs4)cnn23)s1
126 to 128 °C	CC(=O)N1CCC(c2nn(-c3ccccc3)c3cc(F)ccc23)CC1

melting point	SMILES
193 to 195 °C	COc1ccccc1CSc1nc2cnccc2[nH]1
63.5 to 65.5 °C	CCN(CC)C(=O)c1c(C=O)cccc1[Si](C)(C)C
115 °C	Oc1cccc2cc3ccccc3nc12
157 to 159 °C	C=CCn1c(NCCCOc2ccccc2)nc(N2CCc3ccccc3CC2)c(C#N)c1=O
200 to 203 °C	CC(=O)OC(c1ccc(NC(=O)c2ccc(-c3ccc(Cl)cc3)cc2)cc1)C1CCCNC1 (centres undefined)
263 to 264 °C	O=C(NCc1cccnc1)c1[nH]c2ccc(Cl)cc2c1S(=O)(=O)c1ccccc1
75 to 79 °C	CCn1c2ccc(I)cc2c2cc(I)ccc21
236 to 238 °C	CC(=NC#N)N[C@@H]1c2cc(C#N)ccc2OC(C)(C)[C@H]1O (relative stereo)
340 to 350 °C	O=C1NCc2c1c(O)nc1ccccc21
160 to 161 °C	CCSNc1c(C#N)c(C)nn1-c1c(Cl)cc(C(F)(F)F)cc1Cl
187 to 188 °C	O=C(O)[C@H](Cc1ccccc1)Nc1c(NC(c2ccccc2)c2ccccc2)c(=O)c1=O
162 to 163 °C	O=C(O)c1cc2c(n(CC3CCCCC3)c1=O)CCCCCC2
80 to 81 °C	CCc1nc(Cl)cc(NC)n1
164 to 165 °C	CC(C)c1nc(-c2ccccc2)n(-c2ccc(F)cc2)c1C=C(Br)Br
164 to 169 °C	COC(=O)c1ccc(C(=O)NS(=O)(=O)c2ccc(CCNC(=O)Cc3ccc(OC)c(OC)c3)cc2)cn1
90 to 91 °C	CN1C(=O)CC[C@]2(C)c3ccc(Sc4nc5cccc(Cl)c5s4)cc3CC[C@@H]12
100 to 102 °C	COC(=O)c1ccc(Cl)c(Cl)c1NS(C)(=O)=O
144 to 145 °C	N#CCc1cccc2c(=O)cc(C3(Br)CCCCC3)oc12
106 to 107 °C	COc1ccc2c(c1)CCC1C2CCC2(C)C1CCC2N(C=O)CCC(C)C (centres undefined)
103 to 105 °C	Cc1cc(Cl)ccc1N1CN(C)CN(C)C1=S
190 to 192 °C	O=C(CCN1CCC(C(O)(c2ccc(F)cc2)c2ccc(F)cc2)CC1)Nc1ccccc1
74 to 76 °C	Nc1cc2n(n1)CCOC2
94 to 97 °C	CCOC(=O)c1c(-c2ccc(F)cc2)cc(-c2ccccc2Cc2ccccc2)nc1C(C)C

SMILES	melting point
COC(=O)c1cc(C(=O)c2ccc(OC)c3ccccc23)cn1C	162 °C
CC(=O)NC(=S)NC1CC2c3cccc4[nH]cc(c34)CC2N(C)C1 (centres undefined)	240 to 242 °C
CCCN1CCC(O)(c2cccc(F)c2F)C1 (single isomer, unassigned; (-))	95 to 98 °C
C(=C1\CN2CCC1CC2)/N1c2ccccc2Sc2ccccc21	149 to 153 °C

From a melting point compilation (Tetko et al.; mined from patent text by program, amines drawn as free bases though some values may be those of a salt)
